Assay results as given in patent publication US10265303B2, “Hyperphenylalaninemia and treatments thereof” (BERGEN TEKNOLOGIOVERFØRING AS, priority 2015, dated 2019).
Substitutions are numbered along the chain they refer to.

What was measured:
R261Q-PAH = target: T1, R261Q-PAH (Homo sapiens, UniProt P00439, R261Q); assay: PAH protein level and activity in HEK293 EBNA cells transiently expressing PKU mutant R261Q; type: cell-based; conditions: 24 h
T1 construct: expressed in transfected cells; host or cells: HEK293 EBNA, transient, pcDNA3-PAH
T1 sequence (P00439 1-452 R261Q): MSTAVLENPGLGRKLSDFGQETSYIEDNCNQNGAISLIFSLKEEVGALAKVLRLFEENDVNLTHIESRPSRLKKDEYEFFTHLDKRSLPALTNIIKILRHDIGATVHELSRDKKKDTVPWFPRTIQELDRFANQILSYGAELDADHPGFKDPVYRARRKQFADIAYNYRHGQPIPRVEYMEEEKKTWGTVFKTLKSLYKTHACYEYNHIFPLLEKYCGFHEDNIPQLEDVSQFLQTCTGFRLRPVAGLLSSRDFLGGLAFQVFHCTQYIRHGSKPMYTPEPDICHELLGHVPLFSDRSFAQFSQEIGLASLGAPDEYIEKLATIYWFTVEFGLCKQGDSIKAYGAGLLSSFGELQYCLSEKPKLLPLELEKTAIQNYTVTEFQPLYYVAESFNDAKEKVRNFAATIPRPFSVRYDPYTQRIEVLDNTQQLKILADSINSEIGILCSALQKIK
Protocol: Cell lysates were prepared as indicated above.

hPAH = target: T2, hPAH (Homo sapiens, UniProt P00439); assay: SPR screening and affinity determination on immobilized hPAH (Biacore T200); type: binding; conditions: SPR, 25° C., compound 0-500 μM in 5% DMSO; affinities said to be overestimated, relative KD reliable; read-out: KD (μM) ± SER
T2 sequence (P00439 1-452): T1 sequence (P00439 1-452 R261Q) with Q261R
Protocol: For detailed determination of binding affinity of Compound 53 and derivatives (FIG. 4) SPR was performed on a Biacore T200 (GE Healthcare Life Sciences) at a temperature of 25° C. A hPAH solution at 0.08 μg/μl in a final volume of 200 μl in acetate buffer pH 5.0 was immobilized onto series S sensor chip CM5 by the standard amine coupling procedure at a flow rate of 30 μl/min and PBS-P+ buffer as running buffer aiming for RU 20000. After the coupling reaction the surface of the sensor chip was washed to eliminate unbound species with HBS buffer (0.01 M NaHepes pH 7.4, 0.15 M NaCI) at steady flow of 20 μl/min for 1 hour until the baseline drift was around 0.05 RU/s; note that an early injection of 40 μl dithiothreitol (DTT) 10 mM in HBS allowed for this reduced washing time.
For the screening, compounds were assayed at a concentration of 200 μM, with 5% DMSO in duplicates, including negative controls with 5% DMSO, positive controls, with 200 μM BH2 and solvent correction was also performed. For KD calculations, a compound concentration 0-500 μM (in 5% DMSO) were applied at otherwise analogous experimental design and analyses were performed using Biacore T200 Evaluation Software, version 2.0 (GE Healthcare Life Sciences).
All the responses from the compounds of the screening were subjected to blank subtraction (negative control 5% DMSO), molecular weight adjustment and solvent correction to account for differences in bulk response. Next a cut-off value for the screening was selected based on the response of the positive control of our experiments: RU BH2+3*SD (2.88+3*1.79=8.27). In this manner, from the 11 derivatives of Compound 53 tested (see FIG. 4) we weeded out those compounds with a lower response than 8.27, namely #53.2, #53.9 and #53.11.
In addition and for the rest of the compounds which continued our workflow, binding affinities were determined and the results are shown in the following table. The selected conditions to measure affinity are selected for high throughput measurements, but the affinities are overestimated though the relative KD for the different compounds are reliable.

- protein and activity, mutant R261Q, Compound 53 and BH2 together (R261Q-PAH; 200 μM each): trends for additive effects
- PAH activity, mutant R261Q (R261Q-PAH; 200 μM, 1% DMSO): greatly increased
- hPAH protein level, mutant R261Q (R261Q-PAH; 200 μM, 1% DMSO): greatly increased
- Kd (hPAH): 58.5 ± 35.8 µM
Structure (SMILES): COc1cc(Cc2cnc(N)nc2N)cc(OC)c1OC [c53, trimethoprim]
